{"source": "paper PMC8250858", "about": "“A Systematic Study of the Stability, Safety, and Efficacy of the de novo Designed Antimicrobial Peptide PepD2 and Its Modified Derivatives Against Acinetobacter baumannii” (Frontiers in Microbiology, 2021)", "key": {"in vitro": {"assay": "in vitro", "type": "in vitro ADME, rat", "conditions": "rat, plasma, rat plasma, room temperature", "method": "EDTA-treated rat whole blood was centrifuged at 4°C and 840 × g for 5 min, and then the blood cells were removed ([[…] et al., 2019]). The supernatant was placed in an Eppendorf tube and centrifuged at 4°C and 13,000 rpm for 10 min to remove lipids (white precipitate). The supernatant was filtered through a 0.2-μm filter. The peptide was dissolved in water and filtered through a 0.2-μm filter. The peptide concentration was quantified by the UV280 to make a 1 mg/mL stock solution. […] At the indicated time, the peptide was analyzed by HPLC with a C18 column using a linear gradient of 20-65% B over 15 min. Solution A: 5% acetonitrile plus 0.1% trifluoroacetic acid in water; solution B: 0.1% trifluoroacetic acid in acetonitrile."}, "A. baumannii ATCC 17978": {"tested_on": "A. baumannii ATCC 17978", "type": "cell-based, Acinetobacter baumannii", "conditions": "spotted on MHA plate, 24 h", "method": "Following CLSI guideline M07-A11, single bacterial colonies of A. baumannii ATCC 17978 grown on Müller–Hinton agar (MHA) plates were picked and inoculated in 4 mL of Müller–Hinton broth (MHB) at 37°C and shaken at 180 rpm for 4∼6 h. The bacterial broth was diluted in the same medium to give a cell density of 1∼2 × 10^8 CFU/mL (OD600 = 0.38∼0.4 for A. baumannii) (Supplementary Figure 1; [Dillon et al., 2020]). Then, the broth was diluted 20-fold. Peptides were dissolved in water and filtered through a 0.2-μm filter to make a stock solution. The peptide concentration was quantified by the UV280. Then, the peptide solution was serially diluted in MHB to final peptide concentrations of 1, 2, 4, 8, 16, and 32 μg/mL. One hundred microliters of serially diluted peptide and 10 μL of bacterial culture were mixed in a 96-well polystyrene plate. Each well contained approximately 5 × 10^5 CFU/mL. The positive control was a mixture of 100 μL of MHB and 10 μL of the bacterial culture. The negative control was 110 μL of MHB. The plates were incubated at 37°C without shaking. […] The bacterium-peptide mixtures (the mixture without visible growth and the mixture containing a two-fold […] peptide concentration than the mixture without growth), positive control, and negative control (3 μL each) were spotted on an MHA plate and incubated at 37°C for 24 h. The MBC was determined as the lowest peptide concentration at which no colonies formed.\nThe MIC and MBC of our designed peptides against A. baumannii were obtained by using the broth microdilution method in the CLSI protocol. The bacterial cell number was carefully counted, and a final cell density of 5 × 10^5 CFU/mL in each well was used in the MIC test (Supplementary Figure 1). The minimal peptide concentration at which no bacterial growth was observed was taken as the MIC value. The culture after peptide treatment was spotted on an MHA plate, and the peptide concentration that could kill all the bacteria was defined as the MBC. The MIC/MBC and hemolytic activity of these peptides are shown and compared in Figure 1."}, "[1]": {"tested_on": "A. baumannii (ATCC 17978)", "type": "cell-based, Acinetobacter baumannii", "conditions": "ex vivo rat blood, 4 μg/mL of each peptide", "method": "The time-kill kinetics measurement against A. baumannii (ATCC 17978) in blood was conducted following a protocol modified from the literature ([Nagarajan et al., 2019]). […] Then, 4 μL of the peptide stock solution to be tested (2,035 μg/mL in water) was added to make the final bacterial cell number 10^7 CFU/mL and the final peptide concentration 4 μg/mL (assigned as tube A). At 2, 4, 6, 8, 10, 20, 30, 40, 50, and 60 min, 100 μL of the bacteria/blood mixture was removed from tube A and mixed with 100 μL of sterilized 2 M NaCl/50% glycerol (twofold dilution, assigned as tube B). […] Ten microliters of the mixture from tube B were mixed with 990 μL of sterilized 1 M NaCl (200-fold dilution, assigned as tube C). Ten microliters of the mixture from tube C was mixed with 90 μL of sterilized 1 M NaCl (2,000-fold dilution, assigned as tube D). Finally, ten or one hundred microliters of solution from each tube was plated on an MHA plate and incubated at 37°C overnight to count the colony number. To test whether freezing in liquid nitrogen kills part of the bacteria, pepdD2 was tested with and without freezing. […] At 0 and 60 min, the bacterial number was measured as described above. […] At the indicated time points, an aliquot of the sample was removed and diluted, and the remaining cell number was counted by plating on MHA plates. The data are expressed as the mean ± SD. […]"}, "HEK293 cells": {"tested_on": "HEK293 cells", "type": "cell-based, human", "method": "Cell viability assays were performed by using the CellTiter 96® AQueous Non-Radioactive Cell Proliferation Assay (Promega, United States), in which 3-(4,5-dimethylthiazol-2-yl)-5-(3-carboxymethoxyphenyl)-2-(4-sulfophenyl)-2H-tetrazolium salt (MTS) can be reduced to purple-colored formazan by intact cells. […] The test peptide was dissolved in water and filtered through a 0.2-μm filter. The peptide concentration was quantitated by the UV280 to make a 5,120 μg/mL stock solution and then serially diluted in serum-free DMEM. On the second day, the medium was replaced with 100 μL of serum-free DMEM containing different peptide concentrations and incubated for 1 or 24 h. Serum-free DMEM without peptide was used as a negative control and medium containing 1% Triton X-100 was used as a positive control. One milligram of MTS powder was dissolved in 0.5 mL of Dulbecco’s phosphate-buffered saline (DPBS). The MTS solution was mixed with one-twentieth of a phenazine methosulfate (PMS) solution ([…]). To each well, 20 μL of the MTS/PMS solution was added. After 3 h, the absorbance was measured with an Infinite M1000 pro (Tecan Austria GmbH, Austria) at a wavelength of 490 nm. Cell viability was calculated using the following equation. Cellviability=[(A-Ap)/(An-Ap)]×100% A is the UV490 of the peptide-treated sample An is the UV490 of the sample without peptide (negative control) Ap is the UV490 of the Triton-treated sample (positive control)"}}, "note": "Where two headings read alike, the source gives them in different places."}
{"substance": "Ac-WKKIKKIIKKIKKI-NH2 [pepI2]", "values": [{"measurement": "half-life at 0.6 mg/mL", "setting": "in vitro", "result": 11.2, "unit": "h"}, {"measurement": "MBC A. baumannii 17978", "setting": "A. baumannii ATCC 17978", "result": 4, "unit": "µg/mL"}, {"measurement": "Killing rate compared", "setting": "[1]", "result": "killed bacteria faster than pepdD2"}, {"measurement": "HEK293 IC50", "setting": "HEK293 cells; 1 h", "result": 68.5, "unit": "µg/mL"}, {"measurement": "HEK293 IC50", "setting": "HEK293 cells; 24 h", "result": 66.8, "unit": "µg/mL"}]}
